# Measurements: US20240150691A1, “BILE DUCT CHIP AND USE THEREOF” (Kyoto University, priority 2021, published 2024)
# Legend:
# [1] = Drug absorption in microfluidic device without PHH (LC-MS/MS); format: physicochemical; details: for Drug absorption rate: Microfluidic device/Polystyrene plate, without PHH
# Description: (§1) A culture medium containing MDZ, DIC, PHE, BUF, or MPHT was added to a microfluidic device or a polystyrene plate. Subsequently, 1, 2, and 4 hours after the addition of the drugs, the amounts of these drugs were quantified with LC-MS/MS.
# as §1, with “APAP (a CYP1A2 metabolite), 1OH-MDZ (a CYP3A4 metabolite), 4OH-DIC (a CYP2C9 metabolite), 4OH-MPHT (a CYP2C19 metabolite),” for “MDZ, DIC, PHE, BUF,”, “1OH-BUF (a CYP2D6 metabolite)” for “MPHT”
# Subsequently, it was examined whether the absorption of the drugs and metabolites could be predicted by the relative physicochemical characteristics between the microfluidic device and the polystyrene plate. The drug absorption rate between the microfluidic device and the polystyrene plate was calculated. Subsequently, a correlation coefficient R^2 value between the drug absorption rate and the physicochemical characteristics (DiffCoef, M Log P, S+Log P, S+log D, MWt, and tPSA) of the drugs was calculated.
# [2] = Acetaminophen-induced cytotoxicity, WST-8 assay; format: cell-based, human; details: human, PHH cultured on the polystyrene plate
# Description: (§2) PHH was exposed to 10 mM APAP (FUJIFILM Wako Pure Chemical Corporation) for 4 days. Cell viability was measured according to a WST-8 assay. The WST-8 assay was carried out using a Cell Counting Kit-8 (Dojindo Molecular Technologies. Inc.) according to the instruction manual. The cell viability was calculated as a percentage with respect to cells not subjected to a drug treatment.
# (§3) The drug responsiveness of the PHH cultured in the microfluidic device and the polystyrene plate was evaluated. PHH was treated with acetaminophen (APAP), which is known to cause drug-induced liver damage at a high concentration, in order to investigate whether or not drug-induced liver damage can be evaluated in PHH cultured in a microfluidic device. PHH was seeded in a microfluidic device or a polystyrene plate and cultured for 24 hours. Subsequently, the PHH was exposed to 10 mM acetaminophen for 4 days. Subsequently, cell viability was measured according to a WST-8 assay.
# (§4) Subsequently, the hepatotoxicity of PHH due to acetaminophen was examined. The PHH cultured on the polystyrene plate was exposed to acetaminophen at various concentrations for 4 days. Subsequently, cell viability was measured according to a WST-8 assay. […] The data is indicated as average value±standard deviation (n=3).
# [3] = test system: PHH; experiment: Acetaminophen-induced cytotoxicity, WST-8 assay; format: cell-based, human; details: 10 mM acetaminophen, 4 days
# Description: as §2, §3, §4
# [4] = test system: CYP1A2; experiment: Measurement of CYP activity using CYP substrates in PHH (PHE to APAP); format: in vitro ADME, human; details: 50 μM PHE
# Description: The supernatant was recovered 1, 2, and 4 hours after the treatment with the substrate.
# [5] = biological target: T1, CYP2D6 (Homo sapiens, UniProt P10635); experiment: Measurement of CYP activity using CYP substrates in PHH (BUF to 1OH-BUF); format: in vitro ADME; details: 10 μM BUF
# T1 construct: endogenous in cells; host or cells: primary human hepatocytes (PHH)
# T1 sequence (P10635 whole entry): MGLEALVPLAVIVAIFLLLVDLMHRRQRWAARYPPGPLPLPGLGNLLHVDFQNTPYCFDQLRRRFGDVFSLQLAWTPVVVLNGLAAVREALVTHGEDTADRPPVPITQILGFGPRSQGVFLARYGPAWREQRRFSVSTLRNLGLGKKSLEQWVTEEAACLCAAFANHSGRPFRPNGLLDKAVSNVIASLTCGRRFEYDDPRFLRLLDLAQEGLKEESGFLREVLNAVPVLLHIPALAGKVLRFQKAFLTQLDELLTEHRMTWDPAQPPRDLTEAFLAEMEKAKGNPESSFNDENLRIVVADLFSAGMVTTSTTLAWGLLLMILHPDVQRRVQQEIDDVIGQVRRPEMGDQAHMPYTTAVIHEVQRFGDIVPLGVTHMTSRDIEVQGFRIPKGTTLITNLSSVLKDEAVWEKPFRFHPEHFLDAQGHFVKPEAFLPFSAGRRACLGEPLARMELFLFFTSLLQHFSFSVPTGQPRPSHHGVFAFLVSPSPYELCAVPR
# Description: (§5) The LC-MS/MS analysis was carried out to measure the activity of CYP. Prior to a CYP substrate treatment, PHH was cultured in DMEM containing 10 mM HEPES for 30 minutes. Subsequently, the PHH was cultured in a culture medium containing 5 μM MDZ (the metabolite thereof is 1OH-MDZ), 50 μM MPHT (the metabolite thereof is 4OH-MPHT), 5 μM DIC (the metabolite thereof is 4OH-DIC), 10 μM BUF (the metabolite thereof is 1OH-BUF), or 50 μM PHE (the metabolite thereof is APAP). The supernatant was recovered 1, 2, and 4 hours after the treatment with the substrate. At the time of recovering the supernatant, an equal amount of a culture medium containing the substrate was added.
# (§6) The recovered supernatant was mixed with acetonitrile (FUJIFILM Wako Pure Chemical Corporation) containing an equal volume of 5 μM propranolol (internal standard). The specimen was filtered through a Cosmonice Filter W (Nacalai Tesque, Inc.) having a pore size of 0.45 μm, the supernatant was subsequently analyzed by LC-MS/MS, and the concentration of the metabolite was measured based on the standard curve. […]
# (§7) Subsequently, the drug metabolic activities of the PHH cultured in the PDMS device and the PS plate were compared. […] Subsequently, after 1, 2, and 4 hours, the amounts of the metabolites (OH-MDZ, 4OH-DIC, APAP, 1OH-BUF, and 4OH-MPHT) generated in the culture medium were measured by LC-MS/MS.
# [6] = biological target: T2, CYP2C9 (Homo sapiens, UniProt P11712); experiment: Measurement of CYP activity using CYP substrates in PHH (DIC to 4OH-DIC); format: in vitro ADME; details: 5 μM DIC
# T2 construct: endogenous in cells; host or cells: primary human hepatocytes (PHH)
# T2 sequence (P11712 whole entry): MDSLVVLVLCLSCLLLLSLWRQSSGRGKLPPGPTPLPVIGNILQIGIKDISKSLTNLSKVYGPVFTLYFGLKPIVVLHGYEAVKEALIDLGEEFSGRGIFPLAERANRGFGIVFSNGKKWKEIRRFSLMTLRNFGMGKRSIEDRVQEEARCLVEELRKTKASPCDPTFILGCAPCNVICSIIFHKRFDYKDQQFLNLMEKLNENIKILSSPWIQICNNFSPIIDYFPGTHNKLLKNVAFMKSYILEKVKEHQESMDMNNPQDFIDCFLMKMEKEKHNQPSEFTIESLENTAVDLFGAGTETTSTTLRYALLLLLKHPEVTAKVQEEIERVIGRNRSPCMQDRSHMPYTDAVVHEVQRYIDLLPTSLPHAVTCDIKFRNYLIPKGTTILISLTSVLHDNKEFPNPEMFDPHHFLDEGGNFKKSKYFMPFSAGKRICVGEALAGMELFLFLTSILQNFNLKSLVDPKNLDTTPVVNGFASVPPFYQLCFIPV
# Description: as §5, §6, §7
# [7] = biological target: T3, CYP2C19 (Homo sapiens, UniProt P33261); experiment: Measurement of CYP activity using CYP substrates in PHH (MPHT to 4OH-MPHT); format: in vitro ADME; details: 50 μM MPHT
# T3 construct: endogenous in cells; host or cells: primary human hepatocytes (PHH)
# T3 sequence (P33261 whole entry): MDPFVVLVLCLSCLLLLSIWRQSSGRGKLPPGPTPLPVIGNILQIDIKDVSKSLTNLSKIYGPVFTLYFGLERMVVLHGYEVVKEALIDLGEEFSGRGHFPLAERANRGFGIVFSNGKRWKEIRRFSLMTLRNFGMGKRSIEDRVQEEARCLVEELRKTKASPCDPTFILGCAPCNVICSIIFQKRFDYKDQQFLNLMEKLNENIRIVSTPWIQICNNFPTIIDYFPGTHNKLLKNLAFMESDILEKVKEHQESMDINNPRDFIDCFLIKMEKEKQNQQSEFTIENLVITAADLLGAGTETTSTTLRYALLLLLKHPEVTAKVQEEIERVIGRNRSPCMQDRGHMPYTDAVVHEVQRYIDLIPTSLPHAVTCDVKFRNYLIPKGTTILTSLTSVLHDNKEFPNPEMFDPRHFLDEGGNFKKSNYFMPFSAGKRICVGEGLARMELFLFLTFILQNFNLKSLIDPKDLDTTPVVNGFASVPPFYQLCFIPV
# Description: as §5, §6, §7
structure (smiles),measurement,setting,value
"CC(=O)Nc1ccc(O)cc1 [Acetaminophen, acetaminophen]",Drug absorption rate,[1],0.8987
same,CC50 at 4 days,[2],9.4 mM
same,"cell viability, microfluidic device versus polystyrene plate",[3],significantly lower
same,"formation rate of metabolite, microfluidic device versus polystyrene plate",[4],similar
CC(O)c1cccc2cc(C(O)CNC(C)(C)C)oc12 (centres unmarked) [1-hydroxybufuralol],Drug absorption rate,[1],0.9648
same,absorption in the microfluidic device,[1]; PDMS device without PHH,not absorbed
same,"formation rate of metabolite, microfluidic device versus polystyrene plate",[5],similar
"O=C(O)Cc1ccccc1Nc1c(Cl)cc(O)cc1Cl [4-hydroxy diclofenac, 4-hydroxydiclofenac]",Drug absorption rate,[1],0.725
same,"formation rate of metabolite, microfluidic device versus PS plate",[6],significantly lower
CCC1(c2ccc(O)cc2)NC(=O)N(C)C1=O (centres unmarked) [4-hydroxymephenytoin],Drug absorption rate,[1],0.8633
same,"formation rate of metabolite, microfluidic device versus PS plate",[7],significantly lower
